The source of these data is ChEMBL document CHEMBL4376820, “Homodimeric Tobramycin Adjuvant Repurposes Novobiocin as an Effective Antibacterial Agent against Gram-Negative Bacteria” (J Med Chem, 2019).

≈ marks a conversion by molar mass, not a printed value. Calls of active or inactive are those of the source. The rule behind the calls is not given here.

What is called MIC is the lowest concentration found to suppress growth.

One data set deals with Pseudomonas aeruginosa. Kind of data set: Bacteriostatic activity against Pseudomonas aeruginosa PAO1 at 50.4 uM in LB media after 24 hrs by time-kill assay. Format: functional, organism-based.
In data set [1] the test system is Acinetobacter baumannii. Nature of the data set: Antibacterial activity against wild type Acinetobacter baumannii ATCC 17978 assessed as resistant development at sub-MIC measured after 3 days of passaging by microbroth dilution method relative to control. Type of data set: functional. Background: In broth dilution the organism is exposed to a series of concentrations in liquid medium.

Data set [2] deals with Staphylococcus epidermidis. Kind of data set: Antibacterial activity against methicillin-resistant Staphylococcus epidermidis 61589. Type of data set: functional.
The test system of data set [3] is Acinetobacter baumannii. Nature of the data set: Antibacterial activity against novobiocin-resistant Acinetobacter baumannii ATCC 17978 mutant generated from seven serial passages by checkerboard assay. Format: functional.
A further data set relates to Staphylococcus aureus. Nature of the data set: Antibacterial activity against methicillin-resistant Staphylococcus aureus ATCC 33592. Format: functional.
In the next data set the test system is Escherichia coli. Nature of the data set: Bactericidal activity against Escherichia coli ATCC […] at 50.4 uM in LB media after 24 hrs by time-kill assay. Type of data set: functional, organism-based.
For data set [4], the system named is Acinetobacter baumannii. Nature of the data set: Antibacterial activity against wild type Acinetobacter baumannii ATCC 17978 assessed as resistant development at sub-MIC measured after 5 days of passaging by microbroth dilution method relative to control. Type of data set: functional.
In data set [5] the test system is Acinetobacter baumannii. Kind of data set: Antibacterial activity against novobiocin and test compound-resistant Acinetobacter baumannii ATCC 17978 mutant generated from seven serial passages in presence of novobiocin by checkerboard assay. Format: functional.
Data set [6] deals with Acinetobacter baumannii. Kind of data set: Antibacterial activity against colistin-resistant Acinetobacter baumannii ATCC 17978 mutant generated from seven serial passages by checkerboard assay. Format: functional.
Data set [7] concerns Acinetobacter baumannii. Nature of the data set: Bacteriostatic activity against Acinetobacter baumannii ATCC 17978 at 50.4 uM in LB media after 24 hrs by time-kill assay. Format: functional, organism-based.
The next data set deals with Enterococcus faecium. Kind of data set: Antibacterial activity against Enterococcus faecium ATCC 27270. Type of data set: functional.
Another data set relates to Klebsiella pneumoniae. Kind of data set: Bacteriostatic activity against Klebsiella pneumoniae 116381 at 50.4 uM in LB media after 24 hrs by time-kill assay. Type of data set: functional.
The nature of data set [8]: Toxicity in Galleria mellonella larvae MDR Acinetobacter baumannii isolate assessed as mortality at 100 mg/kg measured after 24 hrs relative to control. Format: ADME, organism-based. The conditions noted are these: in vivo, read-out: Activity.
Data set [9] deals with Acinetobacter baumannii. Kind of data set: Antibacterial activity against wild type Acinetobacter baumannii ATCC 17978 by checkerboard assay. Format: functional.
Data set [10] deals with Acinetobacter baumannii. Kind of data set: Antibacterial activity against wild type Acinetobacter baumannii ATCC 17978 assessed as resistant development at sub-MIC measured after 7 days of passaging by microbroth dilution method relative to control. Format: functional.

Regarding `CO[C@@H]1[C@@H](OC(N)=O)[C@@H](O)[C@H](Oc2ccc3c(O)c(NC(=O)c4ccc(O)c(CC=C(C)C)c4)c(=O)oc3c2C)OC1(C)C` [NOVOBIOCIN], the result in the data set with Pseudomonas aeruginosa, with Escherichia coli and with Acinetobacter baumannii [7] was Active. The entries for the “fold change (FC)” value with Acinetobacter baumannii [1] and with Acinetobacter baumannii [4] were 64 and 256, respectively. Also, the MIC in data set [2] was 0.0625 µg/mL (≈ 0.102 µM); with Acinetobacter baumannii [3], 2050 µg/mL; in the data set with Staphylococcus aureus it was 0.125 µg/mL (≈ 0.204 µM); with Acinetobacter baumannii [5], 128 µg/mL; with Acinetobacter baumannii [6], below 0.031 µg/mL; in the data set with Enterococcus faecium it was 2 µg/mL (≈ 3.26 µM). Also, in the data set on Acinetobacter baumannii [9], the MIC turned out to be 16 µg/mL. Moreover, the Activity in the data set with Klebsiella pneumoniae was -1.87 CFU/ml. In data set [8], the mortality at 24 h worked out at 100%.
Consider COLISTIN, for which the minimal inhibitory concentration (MIC) was found to be 8 µg/mL in the data set on Acinetobacter baumannii [3], 0.031 µg/mL in the data set with Acinetobacter baumannii [5], 1020 µg/mL with Acinetobacter baumannii [6] and 0.063 µg/mL in the data set with Acinetobacter baumannii [9]. Moreover, the fold change (FC) in the data set with Acinetobacter baumannii [10] is 1024.
